Data taken from article PMC11284788, “NN1213 – A Potent, Long-Acting, and Selective Analog of Human Amylin” (Journal of Medicinal Chemistry, 2024).

Tests used:
[1] = system: cAMY1R; test: Whole-cell competition binding, cAMY1R; settings: IC50 for the CTR divided by that of the AMYR, canine receptors
[2] = system: cAMY3R; test: Whole-cell competition binding, cAMY3R; settings: IC50 for the CTR divided by that of the AMYR, canine receptors
[3] = cited from earlier work
From the text: The major chemical degradation products of pramlintide have been identified to include deamidation and isomerization of asparagine residues in positions 3, 21, and 22 and to a lesser degree in positions 14 and 35.[22] Reduction of these deamidation reactions in pramlintide has been obtained by acidic formulation.[23]

[4] = system: cCTR; test: Species-specific cAMP assay, cCTR; settings: cAMP HTRF, transiently transfected BHK cells, 30 min room temperature, five experiments
[5] = system: cAMY1R; test: Species-specific cAMP assay, cAMY1R
[6] = system: cAMY3R; test: Species-specific cAMP assay, cAMY3R
[7] = target: T1, mCTR (Mus musculus, UniProt Q60755); test: Mouse receptor cAMP HTRF assay (BacMam, HeLa), mCTR
T1 sequence (Q60755 42-496 isoform Q60755-2 limits assumed): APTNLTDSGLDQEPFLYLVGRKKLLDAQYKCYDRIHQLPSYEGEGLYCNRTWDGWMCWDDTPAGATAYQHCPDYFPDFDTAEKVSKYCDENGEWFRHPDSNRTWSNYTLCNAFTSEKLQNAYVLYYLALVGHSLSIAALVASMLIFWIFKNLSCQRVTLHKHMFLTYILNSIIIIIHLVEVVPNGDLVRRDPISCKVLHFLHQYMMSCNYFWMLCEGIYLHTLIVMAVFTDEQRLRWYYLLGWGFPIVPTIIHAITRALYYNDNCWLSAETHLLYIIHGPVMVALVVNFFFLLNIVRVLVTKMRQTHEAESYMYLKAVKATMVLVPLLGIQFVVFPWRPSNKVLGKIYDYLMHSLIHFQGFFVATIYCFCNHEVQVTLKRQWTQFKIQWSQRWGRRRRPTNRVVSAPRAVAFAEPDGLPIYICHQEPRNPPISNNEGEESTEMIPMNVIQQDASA
Method: (§1) Mouse Receptors (Functional Assay Only). Cell culture: HeLa cells were cultured in an incubator at 37 °C and 5% CO2, in cell culture medium (DMEM with 10% [v/v] FBS, 1% [w/w] penicillin/streptomycin).
(§2) Cell seeding in T75 flasks (day 1): The day before transfection of the cells, 2 x 10^6 HeLa cells were seeded in three T75 flasks and incubated overnight. Media was removed from 1–2 T175 flasks and cells were washed once with Dulbecco PBS (with Mg2+ and Ca2+). Cells were detached with 2 mL TrypLE Express for 5 min in an incubator. Five mL pre-warmed media was added to each T75 flask and mixed with the cell suspension. Cells were counted in 100 µL of this suspension. The cell suspension was centrifuged at 1200 rpm for 4 min and the supernatant was discarded. The cells were re-suspended in media and 2 x 10^6 cells were seeded in approximately 15 mL in each of the three T75 flasks. The flasks were incubated overnight.
(§3) with 20 µL poly-d-lysin/well for 2–3 h at 37 °C. The plates were washed twice with PBS and allowed
(§4) Transfection of cells (day 2): Reagents were acclimated to room temperature for 30 min. Media was
(§5) removed from the T75 flasks, and cells were washed once with PBS (with Mg2+ and Ca2+). Cells were
(§6) Seeding of transfected cells in assay plates (day 2): Following the 3-h transduction, T75 flasks were
(§7) washed once with PBS (with Mg2+ and Ca2+). […]
mL pre-warmed media and counted.

[8] = target: T2, mAMY3R (Mus musculus, UniProt Q60755+Q9WUP1); test: Mouse receptor cAMP HTRF assay (BacMam, HeLa), mAMY3R; settings: ratio of cAMP EC50 values, mouse receptors
T2 sequence (Q60755 42-496 isoform Q60755-2 limits assumed): T1 sequence (Q60755 42-496 isoform Q60755-2 limits assumed)
T2 sequence (Q9WUP1 24-147 partner limits assumed): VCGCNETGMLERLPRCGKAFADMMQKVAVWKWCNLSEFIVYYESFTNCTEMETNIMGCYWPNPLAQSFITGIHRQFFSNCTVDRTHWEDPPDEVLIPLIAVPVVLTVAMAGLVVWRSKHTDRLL
Method: as §1, §2, §3, §4, §5, §6, §7
mL pre-warmed media and counted.

[9] = system: rats; settings: cited from earlier work
From the text: SEM is the standard error of the mean. || From the daily consumption of food observed in the DIO rats, the steep decrease around day 2 is a typical pattern observed with appetite-reducing agents in rodents.[31]

[10] = cAMP HTRF, transiently transfected BHK cells, 30 min room temperature, five experiments
[11] = ratio of cAMP EC50 values, canine receptors
[12] = single sc injection of 30 nmol/kg, published previously

| SMILES | Ratio CTR/AMY1R (canine, binding) [1] | Ratio CTR/AMY3R (canine, binding) [2] | half-life in plasma [3] | cCTR pEC50 [4] | cAMY1R pEC50 [5, 10] | Ratio CTR/AMY1R (canine, functional) [5, 11] | cAMY3R pEC50 [6, 10] | Ratio CTR/AMY3R (canine, functional) [6, 11] | EC50 [7] | Ratio CTR/AMY3R (mouse, functional) [8] | reduction in food intake in rats [9] | reduction of food intake 0−24 h [9, 12] | reduction of food intake 24–48 h [9, 12] |
| --- | --- | --- | --- | --- | --- | --- | --- | --- | --- | --- | --- | --- | --- |
| CC[C@H](C)[C@H](NC(=O)[C@@H]1CCCN1C(=O)CNC(=O)[C@H](Cc1ccccc1)NC(=O)[C@H](CC(N)=O)NC(=O)[C@H](CC(N)=O)NC(=O)[C@H](CO)NC(=O)[C@H](CO)NC(=O)[C@H](Cc1c[nH]cn1)NC(=O)[C@@H](NC(=O)[C@H](CC(C)C)NC(=O)[C@H](Cc1ccccc1)NC(=O)[C@H](CC(N)=O)NC(=O)[C@H](C)NC(=O)[C@H](CC(C)C)NC(=O)[C@H](CCCNC(=N)N)NC(=O)[C@H](CCC(N)=O)NC(=O)[C@@H](NC(=O)[C@H](C)NC(=O)[C@@H]1CSSC[C@H](NC(=O)[C@@H](N)CCCCN)C(=O)N[C@@H](CC(N)=O)C(=O)N[C@@H]([C@@H](C)O)C(=O)N[C@@H](C)C(=O)N[C@@H]([C@@H](C)O)C(=O)N1)[C@@H](C)O)C(C)C)C(=O)N[C@@H](CC(C)C)C(=O)N1CCC[C@H]1C(=O)N1CCC[C@H]1C(=O)N[C@H](C(=O)N[C@@H](CC(N)=O)C(=O)N[C@H](C(=O)NCC(=O)N[C@@H](CO)C(=O)N[C@@H](CC(N)=O)C(=O)N[C@H](C(=O)N[C@@H](Cc1ccc(O)cc1)C(N)=O)[C@@H](C)O)C(C)C)[C@@H](C)O [pramlintide, reference compound] | 67 | 112 | 30 to 50 min | 10.90 | 10.77 | 1 | 10.88 | 1 | 3.09 nM | 8 |  |  |  |
| CC[C@H](C)[C@H](NC(=O)[C@@H]1CCCN1C(=O)CNC(=O)[C@H](Cc1ccccc1)NC(=O)[C@H](CC(N)=O)NC(=O)[C@H](CC(N)=O)NC(=O)[C@H](CO)NC(=O)[C@H](CO)NC(=O)[C@H](Cc1c[nH]cn1)NC(=O)[C@H](CCCNC(=N)N)NC(=O)[C@H](CC(C)C)NC(=O)[C@H](Cc1ccccc1)NC(=O)[C@H](CCC(=O)O)NC(=O)[C@H](C)NC(=O)[C@H](CC(C)C)NC(=O)[C@H](CCCNC(=N)N)NC(=O)[C@H](CCC(N)=O)NC(=O)[C@@H](NC(=O)[C@H](C)NC(=O)[C@@H]1CSSC[C@H](NC(=O)[C@H](CCCCN)NC(=O)CC[C@H](NC(=O)CCCCCCCCCCCCCCCCCCC(=O)O)C(=O)O)C(=O)N[C@@H](CC(N)=O)C(=O)N[C@@H]([C@@H](C)O)C(=O)N[C@@H](C)C(=O)N[C@@H]([C@@H](C)O)C(=O)N1)[C@@H](C)O)C(=O)N[C@@H](CC(C)C)C(=O)N1CCC[C@H]1C(=O)N1CCC[C@H]1C(=O)N[C@H](C(=O)N[C@@H](CC(N)=O)C(=O)N[C@H](C(=O)NCC(=O)N[C@@H](CO)C(=O)N[C@@H](CC(N)=O)C(=O)N[C@H](C(=O)N1CCC[C@H]1C(N)=O)[C@@H](C)O)C(C)C)[C@@H](C)O [cagrilintide] |  |  |  |  |  |  |  |  |  |  | 45% | 85% | 84% |
